Assay results: PubChem BioAssay (NCI)
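Step 1: Grow cells in 96-well plates. Step 2: Expose to compound for 48 hours at 5 concentrations. Step 3: Interpolate endpoints linearly; if unreached, use highest concentration. TGI: concentration producing complete growth inhibition.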

Columns and labels:
Assay in all cases: inhibition of tumour cell growth, NCI panel, 48 h
[1] = test system: SW-620 colon
[2] = test system: SK-MEL-5 melanoma
[3] = test system: KM12 colon
[4] = test system: SR leukemia
[5] = test system: SF-539 CNS
[6] = test system: TK-10 renal
[7] = test system: MDA-MB-231 breast
[8] = test system: RPMI-8226 leukemia
[9] = test system: OVCAR-3 ovarian
[10] = test system: HOP-62 NSCLC
[11] = test system: OVCAR-8 ovarian
[12] = test system: MOLT-4 leukemia
[13] = test system: LOX IMVI melanoma
[14] = test system: PC-3 prostate
[15] = test system: UACC-62 melanoma
[16] = test system: NCI-H226 lung
[17] = test system: 786-0 renal
[18] = test system: MALME-3M melanoma
[19] = test system: NCI/ADR-RES ovarian
[20] = test system: K-562 leukemia
[21] = test system: MCF7 breast
[22] = test system: UACC-257 melanoma
[23] = test system: SF-268 CNS
[24] = test system: NCI-H23 lung
[25] = test system: SNB-19 CNS
[26] = test system: OVCAR-5 ovarian
[27] = test system: IGROV1 ovarian
[28] = test system: M14 melanoma
[29] = test system: HT29 colon
[30] = test system: BT-549 breast
[31] = test system: HL-60(TB) leukemia
[32] = test system: A498 renal
[33] = test system: ACHN renal
[34] = test system: OVCAR-4 ovarian
[35] = test system: SK-MEL-2 melanoma
[36] = test system: U251 CNS
[37] = test system: SK-MEL-28 melanoma
[38] = test system: UO-31 renal
[39] = test system: HCT-116 colon
[40] = test system: MDA-N
[41] = test system: SF-295 CNS
[42] = test system: DU-145 prostate
[43] = test system: HCT-15 colon
[44] = test system: RXF 393 renal
[45] = test system: SNB-75 CNS
[46] = test system: EKVX NSCLC
[47] = test system: T-47D breast
[48] = test system: SN12C renal
[49] = test system: NCI-H460 lung
[50] = test system: NCI-H522 lung
[51] = test system: HOP-92 NSCLC
[52] = test system: HS 578T breast
[53] = test system: SK-OV-3 ovarian
[54] = test system: A549 NSCLC
[55] = test system: MDA-MB-435
[56] = test system: HCC-2998 colon
[57] = test system: CCRF-CEM leukemia
[58] = test system: CAKI-1 renal
[59] = test system: COLO 205 colon

SMILES: N/C(=N\S(=O)(=O)c1cccc2nsnc12)Nc1ccc(Cl)cc1
- TGI [1]: > 100 µM
- TGI [2]: 31.2 µM
- TGI [3]: > 100 µM
- TGI [4]: > 100 µM
- TGI [5]: > 100 µM
- TGI [6]: 62.8 µM
- TGI [7]: 75.9 µM
- TGI [8]: > 100 µM
- TGI [9]: > 100 µM
- TGI [10]: > 100 µM
- TGI [11]: > 100 µM
- TGI [12]: > 100 µM
- TGI [13]: 85.8 µM
- TGI [14]: 55 µM
- TGI [15]: 35.2 µM
- TGI [16]: > 100 µM
- TGI [17]: > 100 µM
- TGI [18]: 40.2 µM
- TGI [19]: > 100 µM
- TGI [20]: > 100 µM
- TGI [21]: > 100 µM
- TGI [22]: 32.5 µM
- TGI [23]: > 100 µM
- TGI [24]: > 100 µM
- TGI [25]: > 100 µM
- TGI [26]: > 100 µM
- TGI [27]: > 100 µM
- TGI [28]: > 100 µM
- TGI [29]: > 100 µM
- TGI [30]: > 100 µM
- TGI [31]: 78 µM
- TGI [32]: 59.5 µM
- TGI [33]: > 100 µM
- TGI [34]: > 100 µM
- TGI [35]: 26.3 µM
- TGI [36]: 77.1 µM
- TGI [37]: 71.8 µM
- TGI [38]: > 100 µM
- TGI [39]: > 100 µM
- TGI [40]: > 100 µM
- TGI [41]: > 100 µM
- TGI [42]: > 100 µM
- TGI [43]: > 100 µM
- TGI [44]: > 100 µM
- TGI [45]: > 100 µM
- TGI [46]: 63.7 µM
- TGI [47]: > 100 µM
- TGI [48]: > 100 µM
- TGI [49]: 67 µM
- TGI [50]: 25.7 µM
- TGI [51]: 56.5 µM
- TGI [52]: 68.9 µM
- TGI [53]: > 100 µM
- TGI [54]: > 100 µM

SMILES: COc1cc(/C=C2/SC(c3ccccc3)N(c3cccc(Cl)c3)C2=O)cc(OC)c1OC (centres undefined)
- TGI [1]: > 100 µM
- TGI [55]: 93.4 µM
- TGI [2]: > 100 µM
- TGI [3]: > 100 µM
- TGI [4]: 81.8 µM
- TGI [5]: 43 µM
- TGI [6]: > 100 µM
- TGI [7]: > 100 µM
- TGI [8]: 58.3 µM
- TGI [9]: > 100 µM
- TGI [10]: > 100 µM
- TGI [11]: 59.6 µM
- TGI [12]: > 100 µM
- TGI [13]: 35.1 µM
- TGI [15]: > 100 µM
- TGI [16]: > 100 µM
- TGI [56]: > 100 µM
- TGI [17]: 36.4 µM
- TGI [18]: 96.5 µM
- TGI [19]: 73.9 µM
- TGI [20]: > 100 µM
- TGI [21]: > 100 µM
- TGI [22]: > 100 µM
- TGI [23]: > 100 µM
- TGI [24]: > 100 µM
- TGI [25]: > 100 µM
- TGI [57]: 39.9 µM
- TGI [26]: > 100 µM
- TGI [28]: > 100 µM
- TGI [29]: 72.6 µM
- TGI [30]: 72 µM
- TGI [31]: > 100 µM
- TGI [32]: > 100 µM
- TGI [33]: > 100 µM
- TGI [58]: > 100 µM
- TGI [34]: > 100 µM
- TGI [35]: > 100 µM
- TGI [36]: 86.8 µM
- TGI [37]: 90.1 µM
- TGI [38]: > 100 µM
- TGI [39]: 34.8 µM
- TGI [40]: 43.2 µM
- TGI [41]: > 100 µM
- TGI [42]: > 100 µM
- TGI [43]: > 100 µM
- TGI [44]: 53.1 µM
- TGI [46]: > 100 µM
- TGI [47]: > 100 µM
- TGI [48]: 37.2 µM
- TGI [49]: > 100 µM
- TGI [50]: 26.2 µM
- TGI [51]: 77.4 µM
- TGI [52]: > 100 µM
- TGI [59]: > 100 µM
- TGI [53]: > 100 µM
- TGI [54]: > 100 µM

SMILES: C=C(C)C1Cc2c(cc(OC)c3c(=O)c4cccc(O)c4oc23)O1 (centres undefined)
- TGI [1]: > 100 µM
- TGI [2]: 30.1 µM
- TGI [3]: > 100 µM
- TGI [4]: > 100 µM
- TGI [5]: 32.3 µM
- TGI [6]: 46.9 µM
- TGI [7]: 47.6 µM
- TGI [10]: 36.5 µM
- TGI [11]: 59.5 µM
- TGI [12]: > 100 µM
- TGI [13]: 29.6 µM
- TGI [14]: > 100 µM
- TGI [15]: 31.9 µM
- TGI [16]: 44 µM
- TGI [56]: > 100 µM
- TGI [17]: 32.9 µM
- TGI [18]: 48.4 µM
- TGI [19]: > 100 µM
- TGI [20]: > 100 µM
- TGI [21]: 17.4 µM
- TGI [22]: > 100 µM
- TGI [23]: 43.4 µM
- TGI [24]: 59.5 µM
- TGI [25]: 98.4 µM
- TGI [57]: > 100 µM
- TGI [26]: > 100 µM
- TGI [27]: 33.1 µM
- TGI [28]: 50.8 µM
- TGI [29]: > 100 µM
- TGI [30]: 34.8 µM
- TGI [31]: > 100 µM
- TGI [33]: 32.1 µM
- TGI [58]: 30.2 µM
- TGI [34]: 42.4 µM
- TGI [35]: 42.4 µM
- TGI [36]: 34.8 µM
- TGI [37]: 72 µM
- TGI [38]: 39 µM
- TGI [39]: 39.4 µM
- TGI [40]: 53.1 µM
- TGI [41]: 41.6 µM
- TGI [42]: > 100 µM
- TGI [43]: > 100 µM
- TGI [44]: 35.9 µM
- TGI [45]: 29.9 µM
- TGI [46]: > 100 µM
- TGI [47]: 40 µM
- TGI [48]: 76.7 µM
- TGI [49]: 62.6 µM
- TGI [50]: 33.8 µM
- TGI [52]: 49.3 µM
- TGI [59]: > 100 µM
- TGI [53]: 33.7 µM
- TGI [54]: 88.8 µM
